This note sets out measurements from US4407806A, “Fungicidal, herbicidal and plant growth regulating pyridyl-containing ethers” (Chevron Research Company, priority 1981, dated 1983).

SMILES strings stand for the structures.

Holding throughout (assay type): in vivo
Assay [1] relates to grape downy mildew organism Plasmopara viticola. Briefly: Grape Downy Mildew control (detached grape leaves). The settings on record: vs untreated check, read-out: Fungicidal Activity Control %, Grape D.M.
Assay [2] concerns Tomato Late Blight organism Phytophthora infestans. Briefly: whole plant or invertebrate. The settings on record: 168 h, read-out: Fungicidal Activity Control %, Tomato L.B.
The test system of assay [3] is celery late blight organism Septoria apii. Nature of the assay: whole plant or invertebrate. The settings on record: 336 h, read-out: Fungicidal Activity Control %, Celery L.B.
In assay [4] the test system is tomato Early Blight organism, Alternaria solani conidia. Briefly: Tomato Early Blight control. The settings on record: 288 h, about 12 days in greenhouse, vs untreated check, read-out: Fungicidal Activity Control %, Tomato E.B. On the procedure:
Compounds of the invention were tested for the control of the tomato Early Blight organism, Alternaria solani conidia. Tomato (variety Bonny Best) seedlings of 6 to 7 weeks old were used. The tomato plants were sprayed with a 250 ppm solution of the test compound in an acetone-and-water solution containing a small amount of a nonionic emulsifier. The sprayed plants were inoculated one day later with the organism, placed in the environmental chamber and incubated at […] and 100% relative humidity for 24 hours. Following the incubation, the plants were maintained in a greenhouse for about 12 days. Percent diseases control was based on the percent disease development on untreated check plants.

Assay [5] has as its system Bean Powdery Mildew organism Erisiphe polygoni. Nature of the assay: Bean Powdery Mildew control. The settings on record: 240 h, 10 days, vs untreated check, read-out: Fungicidal Activity Control %, Bean P.M. On the procedure:
The compounds of the invention were tested for the control of the Bean Powdery Mildew organism […] polygoni. Seedling bean plants were sprayed with a 250 ppm solution of the test compound in acetone, water and a nonionic emulsifier. The sprayed plants were then inoculated 1 day later with organism. […] The percent disease control provided by a given test compound was based on the percent disease reduction relative to the untreated check plants.

In assay [6] the test system is Crabgrass (Digitaria sanguinalis). Nature of the assay: Pre-emergent herbicidal test. The settings on record: 504 h, pre-emergence, 33 micrograms/cm^2, 3 weeks, 0-to-100 scale, read-out: Herbicidal Activity Pre-Emergence % Control, Crab Grass. On the procedure:
(§1) An acetone solution of the test compound was prepared by mixing 750 mg of the compound, 220 mg of a nonionic surfactant and 25 ml of acetone. This solution was added to approximately 125 ml of water containing 156 mg of surfactant.
(§2) Seeds of the test vegetation were planted in a pot of […] and the test solution was sprayed uniformly onto the soil surface at a dose of 33 micrograms/cm^2. The pot was watered and placed in a greenhouse. […] At the end of this period, the herbicidal effectiveness of the compound was rated based on the physiological observations. A 0-to-100 scale was used, 0 representing no phytotoxicity, 100 representing complete kill.

Assay [7] has as its system Lambsquarter (Chenopodium album). Briefly: Pre-emergent herbicidal test. The settings on record: 504 h, pre-emergence, 33 micrograms/cm^2, 3 weeks, 0-to-100 scale, read-out: Herbicidal Activity Pre-Emergence % Control, L'Qtr. The procedure:
as §1, §2

Assay [8] relates to Mustard (Brassica arvensis). Nature of the assay: Pre-emergent herbicidal test. The settings on record: 504 h, pre-emergence, 33 micrograms/cm^2, 3 weeks, 0-to-100 scale. The procedure:
as §1, §2

In assay [9] the test system is Pigweed (Amaranthus retraflexus). Briefly: Pre-emergent herbicidal test. The settings on record: 504 h, pre-emergence, 33 micrograms/cm^2, 3 weeks, 0-to-100 scale. On the procedure: as §1, §2
Assay [10] deals with Soybean. Nature of the assay: Pre-emergent herbicidal test. The settings on record: Glycine max, 504 h; pre-emergence; 33 micrograms/cm^2; 3 weeks; 0-to-100 scale; read-out: Herbicidal Activity Pre-Emergence % Control, Soybean. The procedure: as §1, §2
Assay [11] has as its system Watergrass (Echinochloa crusgalli). Nature of the assay: Pre-emergent herbicidal test. The settings on record: Echinochloa crus-galli, 504 h; pre-emergence; 33 micrograms/cm^2; 3 weeks; 0-to-100 scale; read-out: Herbicidal Activity Pre-Emergence % Control, Water Grass. The procedure:
as §1, §2

Assay [12] relates to Wild Oats (Avena fatura). Nature of the assay: Pre-emergent herbicidal test. The settings on record: 504 h, pre-emergence, 33 micrograms/cm^2, 3 weeks, 0-to-100 scale. The procedure:
as §1, §2

Assay [13] concerns Crabgrass (Digitaria sanguinalis). Briefly: Post-emergent herbicidal test. The settings on record: 504 h, post-emergence, 33 micrograms/cm^2, 3 weeks, 0-to-100 scale, read-out: Herbicidal Activity Post-Emergence % Control, Crab Grass.
The subject of assay [14] is Lambsquarter (Chenopodium album). Briefly: Post-emergent herbicidal test. The settings on record: 504 h, post-emergence, 33 micrograms/cm^2, 3 weeks, 0-to-100 scale, read-out: Herbicidal Activity Post-Emergence % Control, L'Qtr.
Assay [15] relates to Mustard (Brassica arvensis). Nature of the assay: Post-emergent herbicidal test. The settings on record: 504 h, post-emergence, 33 micrograms/cm^2, 3 weeks, 0-to-100 scale.
For assay [16], the system named is Pigweed (Amaranthus retraflexus). Nature of the assay: Post-emergent herbicidal test. The settings on record: 504 h, post-emergence, 33 micrograms/cm^2, 3 weeks, 0-to-100 scale.
The test system of assay [17] is Soybean. Briefly: Post-emergent herbicidal test. The settings on record: Glycine max, 504 h, post-emergence, 33 micrograms/cm^2, 3 weeks, 0-to-100 scale, read-out: Herbicidal Activity Post-Emergence % Control, Soybean.
The test system of assay [18] is Watergrass (Echinochloa crusgalli). Nature of the assay: Post-emergent herbicidal test. The settings on record: Echinochloa crus-galli, 504 h, post-emergence, 33 micrograms/cm^2, 3 weeks, 0-to-100 scale, read-out: Herbicidal Activity Post-Emergence % Control, Water Grass.
Assay [19] concerns Wild Oats (Avena fatura). Nature of the assay: Post-emergent herbicidal test. The settings on record: 504 h, post-emergence, 33 micrograms/cm^2, 3 weeks, 0-to-100 scale.
Another assay concerns Idaho pinto bean plants. Nature of the assay: Axillary Bud Growth Inhibition Of Pinto Bean Plants. The settings on record: 288 h; 625-ppm; twelve days after treatment; vs untreated check; read-out: Bud Inhib (percent inhibition of axillary bud growth). The procedure:
Compounds of this invention were tested to determine their plant-growth-retarding effects on axillary bud growth of pinto beans.
Idaho pinto bean plants (13-16 days old) having monofoliate leaves fully developed and first trifoliates beginning to unfold were used. All growth 5 mm above the monofoliate leaf node was removed with forceps 1 to 4 hours prior to treatment with the test compounds. Four plants were used for each test compound.
A 625-ppm solution of the test compound in a 2% aqueous acetone solution containing a small amount of a nonionic surfactant was sprayed onto the pinto bean plants until runoff. After drying, the treated plants were transferred to a greenhouse maintained at 20°-23° C. and watered at regular intervals. Twelve days after treatment, the bud growth at the axil of the monofoliate leaf was determined and expressed as percent inhibition of axillary bud growth as compared to untreated check plants.

A further assay concerns Cotton plants. Briefly: Cotton Regrowth. The settings on record: Gossypium hirsutum, 13 to 18 days, 100% is total inhibition, read-out: Regrowth (percent inhibition of cotton regrowth). The procedure: Compounds of this invention were tested to determine their plant-growth regulating effects on cotton leaf regrowth.
Cotton plants, 4 to 5 weeks old, containing 4 true leaves above the cotyledonary leaves are employed. Growth beyond the second true leaf was removed. Within 24 hours the plants are sprayed with a 2000 ppm solution of the test compound. After spraying, the plants are transferred to a greenhouse maintained at 85° F. (±5° F.) and incubated there for from 13 to 18 days. The plants during this period are sub-irrigated in 1/4" of water.
After this period, regrowth is determined as a percent inhibition of auxiliary bud regrowth--100% is total inhibition while 0% is no inhibition.

What is called inhibition is the change of the read-out against control, counted positive when it falls. In the case of `FC(F)(F)c1cccc(COC(c2cccnc2)c2ccc(Cl)cc2Cl)c1` (stereo not drawn) [Compound 5, 3-pyridyl-2,4-dichlorophenylcarbinol 3-trifluoromethylbenzylether], the pest or weed control at 250 ppm in [1] is 12%; in assay [2] it was 0%; in [3], 91%; in assay [4], 71%; in assay [5], 100%. Besides, the pest or weed control at 33 µg/cm2 is 70% in assay [6]; 25% in [7]; 25% in [8]; 45% in assay [9]; 55% in assay [11]; 15% in the assay on Wild Oats (Avena fatura) [12]. The plant injury at 33 µg/cm2 in the assay on Soybean [10] turned out to be 30%. Moreover, the pest or weed control at 5000 ppm, 33 µg/cm2 in assay [13] is 0%; in [14] it was 63%; in assay [15] it was 40%; in assay [16], 55%; in [18], 0%; with Wild Oats (Avena fatura) [19], 0%. Also, the plant injury at 5000 ppm, 33 µg/cm2 with Soybean [17] was 30%. Moreover, the pest or weed control at 625 µg/mL in the assay on Idaho pinto bean plants came out at 70%. For the same compound, in the assay on Cotton plants, the inhibition at 2000 ppm was determined as 65%.
For `c1ccc(COC(c2ccccc2)c2cccnc2)cc1` (stereo not drawn) [Compound 7], the pest or weed control at 250 ppm in assay [1] stood at 0%; in assay [2] it was 0%; in assay [3], 43%; in assay [4], 0%; in assay [5], 100%. In addition, the pest or weed control at 33 µg/cm2 in [6] was found to be 99%; in [7] it was 28%; in assay [8], 0%; in assay [9] it was 32%; in assay [11], 80%; in the assay with Wild Oats (Avena fatura) [12], 0%. Moreover, the plant injury at 33 µg/cm2 with Soybean [10] is 0%. In addition, the pest or weed control at 5000 ppm, 33 µg/cm2 came to 0% in [13]; 65% in assay [14]; 60% in assay [15]; 45% in assay [16]; 0% in assay [18]; 0% in the assay with Wild Oats (Avena fatura) [19]. Besides, in the assay with Soybean [17], the plant injury at 5000 ppm, 33 µg/cm2 is 35%. The pest or weed control at 625 µg/mL with Idaho pinto bean plants was 20%. The inhibition at 2000 ppm with Cotton plants is 90%.
Consider `CC(C)(C)c1ccc(COC(c2cccnc2)c2ccc(Cl)cc2Cl)cc1` (stereo not drawn) [Compound 6, 3-pyridyl-2,4-dichlorophenylcarbinol 4-t-butylbenzylether], for which the pest or weed control at 250 ppm in assay [1] was determined as 50%; in assay [2], 0%; in [3] it was 78%; in assay [4], 40%; in assay [5], 100%. In addition, the pest or weed control at 33 µg/cm2 in assay [6] is 68%; in assay [7], 15%; in [8], 20%; in [9] it was 35%; in [11], 65%; with Wild Oats (Avena fatura) [12], 25%. In the assay with Soybean [10], the plant injury at 33 µg/cm2 worked out at 0%. For the same compound, the pest or weed control at 5000 ppm, 33 µg/cm2 was 0% in assay [13]; 60% in assay [14]; 25% in [15]; 55% in [16]; 0% in assay [18]; 0% in the assay on Wild Oats (Avena fatura) [19]. In the assay on Soybean [17], the plant injury at 5000 ppm, 33 µg/cm2 was 35%. Also, in the assay with Idaho pinto bean plants, the pest or weed control at 625 µg/mL came out at 60%. In addition, the inhibition at 2000 ppm in the assay with Cotton plants was 90%.
Turning to `FC(F)(F)c1cccc(COC(c2ccccc2)c2cccnc2)c1` (stereo not drawn) [Compound 8], the pest or weed control at 250 ppm in [1] was 0%; in assay [2], 0%; in assay [3], 38%; in [4] it was 25%; in assay [5], 100%. For the same compound, the pest or weed control at 33 µg/cm2 (in [6]; in assay [7]; in assay [8]; in assay [9]; in assay [11]; in the assay with Wild Oats (Avena fatura) [12]) was 0% in each case. Further, the plant injury at 33 µg/cm2 in the assay with Soybean [10] stood at 0%. Further, the pest or weed control at 5000 ppm, 33 µg/cm2 in assay [13] is 0%; in [14], 40%; in [15], 50%; in [16], 50%; in assay [18], 0%; in the assay on Wild Oats (Avena fatura) [19] it was 0%. In addition, the plant injury at 5000 ppm, 33 µg/cm2 with Soybean [17] is 25%. Further, in the assay on Idaho pinto bean plants, the pest or weed control at 625 µg/mL worked out at 60%. In addition, the inhibition at 2000 ppm in the assay with Cotton plants came out at 65%.
